Four molecules from ChEMBL document CHEMBL6078611, “A potent GPX4 degrader to induce ferroptosis in HT1080 cells” (Eur J Med Chem, 2024) can be followed below.

Data set [1] concerns HT-1080. Nature of the data set: Protac activity at MDM2/GPX4 in human HT-1080 cells assessed as degradation of GPX4 at 10 uM by Western blot analysis relative to control. Type of data set: cell-based.
Data set [2] has as its system HT-1080. Nature of the data set: Antiproliferative activity against human HT-1080 cells assessed as reduction in cell viability at 7.5 uM incubated for 48 hrs in presence of Fer-1 by CCK-8 assay. The format is functional, cell-based. (Formazan colour is commonly taken as a measure of viable cells.)
Data set [3] concerns HT-1080. Nature of the data set: Induction of ferroptosis in human HT-1080 cells assessed as lipid peroxide accumulation at 10 uM in presence of NAC by BODIPY 581/591C11 staining based analysis. The format is functional, cell-based.
Data set [4] addresses T1, Baculoviral IAP repeat-containing protein 2/Phospholipid hydroperoxide glutathione peroxidase GPX4 (Homo sapiens, UniProt Q13490+P36969). The experiment in a line: Protac activity at cIAP/GPX4 in human HT-1080 cells assessed as degradation of GPX4 at 5 uM preincubated with MG132 for 4 hrs followed by compound addition and measured after 48 hrs by Western blot analysis. The format is cell-based. On the technique in general: In western blotting, separated proteins are transferred to a membrane and probed.
Target sequence in this assay (P36969 whole entry, looked up): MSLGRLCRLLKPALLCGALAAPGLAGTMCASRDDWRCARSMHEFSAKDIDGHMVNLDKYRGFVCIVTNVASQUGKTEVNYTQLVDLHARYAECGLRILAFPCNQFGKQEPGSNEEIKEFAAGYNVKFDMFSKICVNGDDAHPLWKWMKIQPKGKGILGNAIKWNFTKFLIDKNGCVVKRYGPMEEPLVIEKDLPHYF
Target sequence in this assay (Q13490 whole entry, looked up): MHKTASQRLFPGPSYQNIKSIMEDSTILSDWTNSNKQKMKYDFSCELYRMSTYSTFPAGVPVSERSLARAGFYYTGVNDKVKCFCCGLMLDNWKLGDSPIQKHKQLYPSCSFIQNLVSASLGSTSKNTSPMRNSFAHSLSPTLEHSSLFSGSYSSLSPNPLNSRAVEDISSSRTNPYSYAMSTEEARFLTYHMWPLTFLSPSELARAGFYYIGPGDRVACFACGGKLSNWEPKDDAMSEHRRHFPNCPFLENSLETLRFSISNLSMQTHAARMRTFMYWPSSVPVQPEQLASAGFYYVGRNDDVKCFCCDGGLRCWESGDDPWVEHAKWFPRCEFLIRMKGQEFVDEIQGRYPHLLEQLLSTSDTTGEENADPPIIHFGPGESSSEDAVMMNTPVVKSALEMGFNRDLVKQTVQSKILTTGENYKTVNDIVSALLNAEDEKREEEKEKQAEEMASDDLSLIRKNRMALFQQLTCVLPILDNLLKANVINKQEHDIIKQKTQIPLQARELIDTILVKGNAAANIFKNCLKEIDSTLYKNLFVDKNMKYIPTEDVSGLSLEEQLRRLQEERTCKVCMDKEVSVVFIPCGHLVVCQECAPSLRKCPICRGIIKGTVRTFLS

Data set [5] has as its target T1, Baculoviral IAP repeat-containing protein 2/Phospholipid hydroperoxide glutathione peroxidase GPX4. The experiment in a line: Protac activity at cIAP/GPX4 in human HT-1080 cells assessed as degradation of GPX4 at 5 uM preincubated with MLN4924 for 4 hrs followed by compound addition and measured after 48 hrs by Western blot analysis. The format is cell-based.
Target sequence in this assay (P36969 whole entry, looked up): as the sequence (P36969 whole entry, looked up) above
Target sequence in this assay (Q13490 whole entry, looked up): as the sequence (Q13490 whole entry, looked up) above
For data set [6], the system named is HT-1080. The experiment in a line: Antiproliferative activity against human HT-1080 cells assessed as reduction in cell viability at 7.5 uM incubated for 48 hrs in presence of NAC by CCK-8 assay. Type of data set: functional, cell-based.
Data set [7] concerns the target T1, Baculoviral IAP repeat-containing protein 2/Phospholipid hydroperoxide glutathione peroxidase GPX4. The experiment in a line: Protac activity at cIAP/GPX4 in human HT-1080 cells assessed as degradation of GPX4 at 5 uM by Western blot analysis. Particulars: time 12-72 hrs. The format is cell-based.
Target sequence in this assay (P36969 whole entry, looked up): as the sequence (P36969 whole entry, looked up) above
Target sequence in this assay (Q13490 whole entry, looked up): as the sequence (Q13490 whole entry, looked up) above
For data set [8] the target is unchanged. Nature of the data set: Protac activity at cIAP/GPX4 in human HT-1080 cells assessed as degradation of GPX4 at 10 uM incubated for 48 hrs by Western blot analysis relative to control. The format is cell-based.
Target sequence in this assay (P36969 whole entry, looked up): as the sequence (P36969 whole entry, looked up) above
Target sequence in this assay (Q13490 whole entry, looked up): as the sequence (Q13490 whole entry, looked up) above
Data set [9] has as its system HT-1080. The experiment in a line: Induction of ferroptosis in human HT-1080 cells assessed as lipid peroxide accumulation at 10 uM in presence of Fer-1 by BODIPY 581/591C11 staining based analysis. The format is functional, cell-based.
Data set [10] concerns HT-1080. Nature of the data set: Antiproliferative activity against human HT-1080 cells assessed as reduction in cell viability at 7.5 uM incubated for 48 hrs in presence of DFOM by CCK-8 assay. The format is functional, cell-based.
The subject of data set [11] is HT-1080. The experiment in a line: Induction of ferroptosis in human HT-1080 cells assessed as lipid peroxide accumulation by BODIPY 581/591C11 staining based analysis. Type of data set: functional, cell-based. Particulars: dose 0.6-10 µM.
In data set [12] the test system is Mitochondrial membrane. Nature of the data set: Induction of mitochondrial membrane potential loss in human HT-1080 cells at 10 uM incubated for 48 hrs in presence of NAC by JC-1 staining based flow cytometry analysis. The format is cell membranes. A general note: In flow cytometry, cells or beads pass a laser one at a time.
Data set [13] deals with HT-1080. Nature of the data set: Induction of ferroptosis in human HT-1080 cells assessed as lipid peroxide accumulation at 10 uM in presence of DFOM by BODIPY 581/591C11 staining based analysis. Type of data set: functional, cell-based.
The test system of data set [14] is HT-1080. The experiment in a line: Antiproliferative activity against human HT-1080 cells assessed as induction of cell death incubated for 48 hrs in presence of Z-VAD-FMK by CCK-8 assay. The format is functional, cell-based.
Data set [15] deals with T1, Baculoviral IAP repeat-containing protein 2/Phospholipid hydroperoxide glutathione peroxidase GPX4. Nature of the data set: Protac activity at cIAP/GPX4 in human HT-1080 cells assessed as degradation of GPX4 incubated for 48 hrs by Western blot analysis. Type of data set: cell-based.
Target sequence in this assay (Q13490 whole entry): as the sequence (Q13490 whole entry, looked up) above
Target sequence in this assay (P36969 whole entry): as the sequence (P36969 whole entry, looked up) above
The target is the same in data set [16]. The experiment in a line: Protac activity at cIAP/GPX4 in human HT-1080 cells assessed as degradation of GPX4 at 5 uM preincubated with RSL3 for 4 hrs followed by compound addition and measured after 48 hrs by Western blot analysis. The format is cell-based.
Target sequence in this assay (P36969 whole entry, looked up): as above
Target sequence in this assay (Q13490 whole entry, looked up): as the sequence (Q13490 whole entry, looked up) above
Data set [17] has the same target. Nature of the data set: Protac activity at cIAP/GPX4 in human HT-1080 cells assessed as degradation of GPX4 at 5 uM preincubated with cIAP ligand B4 for 4 hrs followed by compound addition and measured after 48 hrs by Western blot analysis. Type of data set: cell-based.
Target sequence in this assay (P36969 whole entry, looked up): as the sequence (P36969 whole entry, looked up) above
Target sequence in this assay (Q13490 whole entry, looked up): as the sequence (Q13490 whole entry, looked up) above
Data set [18] concerns Mitochondrial membrane. The experiment in a line: Induction of mitochondrial membrane potential loss in human HT-1080 cells incubated for 48 hrs by JC-1 staining based flow cytometry analysis. The format is cell membranes. Particulars: dose 0.6-10 µM.
Data set [19] deals with T1, Baculoviral IAP repeat-containing protein 2/Phospholipid hydroperoxide glutathione peroxidase GPX4. The experiment in a line: Protac activity at cIAP/GPX4 in human HT-1080 cells assessed as degradation of GPX4 at 5 uM measured upto 12 hrs after compound washout by Western blot analysis. The format is cell-based.
The test system of data set [20] is HT-1080. Nature of the data set: Induction of ferroptosis in human HT-1080 cells assessed as lipid peroxide accumulation at 10 uM in presence of FeCl2 by BODIPY 581/591C11 staining based analysis. The format is functional, cell-based.
Data set [21] deals with HT-1080. The experiment in a line: Synergistic antiproliferative activity against human HT-1080 cells assessed as induction of cell death at 3.75 uM incubated for 48 hrs in presence of FeCl2 by CCK-8 assay. Type of data set: functional, cell-based.
Data set [22] addresses T1, Baculoviral IAP repeat-containing protein 2/Phospholipid hydroperoxide glutathione peroxidase GPX4. The experiment in a line: Protac activity at cIAP/GPX4 in human HT-1080 cells assessed as degradation of GPX4 at 5 uM preincubated with chloroquine for 4 hrs followed by compound addition and measured after 48 hrs by Western blot analysis. Type of data set: cell-based.

A further data set deals with HEK-293T. The experiment in a line: Cytotoxicity against HEK293T cells assessed as reduction in cell viability at 40 uM incubated for 48 hrs by CCK-8 assay. The format is toxicity, cell-based. Particulars: human.
For data set [23], the system named is HT-1080. Nature of the data set: Antiproliferative activity against human HT-1080 cells assessed as reduction in cell viability incubated for 48 hrs by CCK-8 assay. Particulars: HT-1080, 48 h. The format is functional, cell-based.
The subject of data set [24] is Mitochondrial membrane. Nature of the data set: Induction of mitochondrial membrane potential loss in human HT-1080 cells at 10 uM incubated for 48 hrs in presence of DFOM by JC-1 staining based flow cytometry analysis. Type of data set: cell membranes.
Data set [25] deals with T1, Baculoviral IAP repeat-containing protein 2/Phospholipid hydroperoxide glutathione peroxidase GPX4. Nature of the data set: Protac activity at cIAP/GPX4 in human HT-1080 cells assessed as degradation of GPX4 at 3 uM incubated for 4 hrs by Western blot analysis. The format is cell-based.
Data set [26] can be described thus: Cytotoxicity against HEK293T cells assessed as reduction in cell viability incubated for 48 hrs by CCK-8 assay. Type of data set: toxicity, cell-based, HEK-293T. Particulars: human.

The structures appear in SMILES notation. Active and inactive are the calls of the source. The rule behind the calls is not given here.

Take `COC(=O)[C@H]1Cc2c([nH]c3ccccc23)[C@H](c2ccc(C(=O)NCc3cn(CCOCCNC(=O)CN4CCN(C(=O)N5C(c6ccc(OC)cc6OC(C)C)=N[C@H](c6ccc(Cl)cc6)[C@@H]5c5ccc(Cl)cc5)CC4=O)nn3)cc2)N1C(=O)CCl`: in the data set on HT-1080 [1], the Activity came to 60%.

Turning to `COC(=O)[C@H](CC(C)C)NC(=O)[C@@H](O)[C@@H](Cc1ccccc1)NC(=O)CCCCCCCn1cc(CNC(=O)c2ccc([C@H]3c4[nH]c5ccccc5c4C[C@H](C(=O)OC)N3C(=O)CCl)cc2)nn1`, the result (with HT-1080 [2]; in the data set on HT-1080 [3]; in data set [4]; in data set [5]; with HT-1080 [6]; in the data set with HT-1080 [9]) was inactive. Moreover, the result (in the data set on HT-1080 [10]; in the data set with Mitochondrial membrane [12]; in the data set on HT-1080 [13]; in [16]; in [17]; with HT-1080 [20]) was inactive. Further, the outcome (in data set [22]; in the data set on Mitochondrial membrane [24]) was inactive. For the same molecule, the Activity entry in data set [7] was “Time-dependent-effect”; in the data set on HT-1080 [11] it was “Dose-dependent-effect”; with Mitochondrial membrane [18] it was “Dose-dependent-effect”; in the data set with HEK-293T, “Toxic”. Also, in data set [8], the Emax stood at 85%. Moreover, the result (in the data set on HT-1080 [14]; in [19]; in the data set with HT-1080 [21]) was Active. Moreover, the DC50 in data set [15] was determined as 1.68 µM. In addition, in the data set with HT-1080 [23], the IC50 is 2.37 µM.

Regarding `COC(=O)c1ccc([C@H]2c3[nH]c4ccccc4c3C[C@H](C(=O)NCc3cn(CCCCCC(=O)N[C@H](Cc4ccccc4)[C@H](O)C(=O)N[C@@H](CC(C)C)C(=O)OC)nn3)N2C(=O)CCl)cc1`, the Emax in [8] was found to be 75%. In addition, the DC50 in [15] was 4.22 µM.

Take `COC(=O)c1ccc([C@H]2c3[nH]c4ccccc4c3C[C@H](C(=O)OC)N2C(=O)CCl)cc1`: in data set [25], the result was inactive. Also, the IC50 at 48 h in [26] worked out at 10.8 µM. For the same molecule, the IC50 in the data set with HT-1080 [23] was found to be 1.55 µM.

A word on the Emax: it is the maximal effect, on the per cent scale that the assay sets. As a reminder, the DC50 is the concentration giving 50% degradation. The term IC50 denotes the point on the concentration scale where inhibition reaches its midpoint.
